The data set relates to rodent carcinogenicity bioassays, tumor incidence. As to the kind of experiment: CCRIS carcinogenicity studies. To be noted: Species: RAT. An excerpt:
The CCRIS database contains chemical records with carcinogenicity, mutagenicity, tumor promotion, and tumor inhibition test results. It was developed by the National Cancer Institute (NCI). Data are derived from studies cited in primary journals, current awareness tools, NCI reports, and other sources. Test results have been reviewed by experts in carcinogenesis and mutagenesis.
CCRIS provides historical information from the years 1985 - 2011. It is no longer updated.
This is an archive assay for CCRIS carcinogenicity studies.

Active and inactive are the calls of the source. The rule behind the calls is not given here.

In the case of `C=CCl`, the carcinogen call was “inactive; negative” (Strain/Sex: SPRAGUE-DAWLEY/FEMALE, Route: INHALATION, Dose: 0, 6000, 10000 PPM IN AIR 4 HR/D 1 D/WK FOR 25 WK (STUDY DURATION: LIFETIME), Dose: 0, 6000, 10000 PPM IN AIR 4 HR/D 1 D/WK FOR 25 WK (STUDY DURATION: LIFETIME), Tumor Site: Type of Lesion: [BRAIN WAS ONLY SITE EVALUATED]); “inactive; negative” (Strain/Sex: SPRAGUE-DAWLEY/FEMALE, Route: INHALATION, Dose: 0, 6000, 10000 PPM IN AIR 4 HR/D 5 D/WK FOR 5 WK (STUDY DURATION: LIFETIME), Dose: 0, 6000, 10000 PPM IN AIR 4 HR/D 5 D/WK FOR 5 WK (STUDY DURATION: LIFETIME), Tumor Site: Type of Lesion: [BRAIN WAS ONLY SITE EVALUATED]); “active; positive” (Strain/Sex: SPRAGUE-DAWLEY/MALE,FEMALE, Route: GAVAGE, Dose: 0, 3.33, 16.65, 50.0 MG/KG IN OLIVE OIL 1/D, 4-5 D/WK FOR 52 WK (STUDY DURATION: 136 WK), Dose: 0, 3.33, 16.65, 50.0 MG/KG IN OLIVE OIL 1/D, 4-5 D/WK FOR 52 WK (STUDY DURATION: 136 WK), Tumor Site: Type of Lesion: LIVER: ANGIOSARCOMA); “active; positive” (Strain/Sex: SPRAGUE-DAWLEY/MALE,FEMALE, Route: INHALATION, Dose: 0, 50-10000 PPM 4 HR/D, 5 D/WK FOR 52 WK (STUDY DURATION: 135 WK), Tumor Site: Type of Lesion: LIVER: ANGIOSARCOMA, NERVOUS SYSTEM: NEUROBLASTOMA, EAR (ZYMBAL GLAND): CARCINOMA, KIDNEY: NEPHROBLASTOMA, Tumor Site: Type of Lesion: LIVER: ANGIOSARCOMA, NERVOUS SYSTEM: NEUROBLASTOMA, EAR (ZYMBAL GLAND): CARCINOMA, KIDNEY: NEPHROBLASTOMA); “inactive; negative” (Strain/Sex: SPRAGUE-DAWLEY/MALE, Route: GAVAGE, Dose: 0, 0.03, 0.3, 1, 3.33, 16.65, 50 MG/KG BW IN OLIVE OIL 1/D 4-5 D/WK FOR 52-59 WK (STUDY DURATION: LIFETIME), Dose: 0, 0.03, 0.3, 1, 3.33, 16.65, 50 MG/KG BW IN OLIVE OIL 1/D 4-5 D/WK FOR 52-59 WK (STUDY DURATION: LIFETIME), Tumor Site: Type of Lesion: [BRAIN WAS ONLY SITE EVALUATED]); “active; positive” (Strain/Sex: SPRAGUE-DAWLEY/MALE, Route: INHALATION, Dose: 0, 600 PPM 4 HR/D, 5 D/WK FOR 1 YR (STUDY DURATION: 2.5 YR), Tumor Site: Type of Lesion: LIVER: HEPATOCELLULAR CARCINOMA, ANGIOSARCOMA). The carcinogen call (Strain/Sex: SPRAGUE-DAWLEY/MALE, Route: INHALATION, Dose: 0, 2500 PPM 4 HR/D 5 D/WK FOR 7 WK THEN 7 HR/D 5 D/WK FOR 8 WK ADMINISTERED TO RAT EMBRYOS BEGINNING ON 12TH DAY OF GEST, Tumor Site: Type of Lesion: LIVER: HEPATOMA, ANGIOSARCOMA, BRAIN: NEUROBLASTOMA) is “active; positive”; the carcinogen call (Strain/Sex: SPRAGUE-DAWLEY/MALE, Route: INHALATION, Dose: 0, 2500 PPM 4 HR/D 5 D/WK FOR 7 WK THEN 7 HR/D 5 D/WK FOR 69 WK ADMINISTERED TO RAT EMBRYOS BEGINNING ON 12TH DAY OF GES, Tumor Site: Type of Lesion: BRAIN: NEUROBLASTOMA, LIVER, HEPATOCARCINOMA, ANGIOSARCOMA, Tumor Site: Type of Lesion: BRAIN: NEUROBLASTOMA, LIVER, HEPATOCARCINOMA, ANGIOSARCOMA) is “active; positive”; the carcinogen call (Strain/Sex: SPRAGUE-DAWLEY/MALE, Route: INHALATION, Dose: 0, 6000, 10000 PPM IN AIR 1 HR/D 4 D/WK FOR 25 WK (STUDY DURATION: LIFETIME), Dose: 0, 6000, 10000 PPM IN AIR 1 HR/D 4 D/WK FOR 25 WK (STUDY DURATION: LIFETIME), Tumor Site: Type of Lesion: [BRAIN WAS ONLY SITE EVALUATED]) is “inactive; negative”; the carcinogen call (Strain/Sex: SPRAGUE-DAWLEY/MALE, Route: INHALATION, Dose: 0, 6000, 10000 PPM IN AIR 4 HR/D 1 D/WK FOR 25 WK (STUDY DURATION: LIFETIME), Dose: 0, 6000, 10000 PPM IN AIR 4 HR/D 1 D/WK FOR 25 WK (STUDY DURATION: LIFETIME), Tumor Site: Type of Lesion: [BRAIN WAS ONLY SITE EVALUATED]) was “inactive; negative”; the carcinogen call (Strain/Sex: SPRAGUE-DAWLEY/MALE, Route: INHALATION, Dose: 0, 6000, 10000 PPM IN AIR 4 HR/D 5 D/WK FOR 5 WK (STUDY DURATION: LIFETIME), Dose: 0, 6000, 10000 PPM IN AIR 4 HR/D 5 D/WK FOR 5 WK (STUDY DURATION: LIFETIME), Tumor Site: Type of Lesion: [BRAIN WAS ONLY SITE EVALUATED]) was “inactive; negative”; the carcinogen call (Strain/Sex: SPRAGUE-DAWLEY, Route: ORAL, Tumor Site: Type of Lesion: LIVER) is “active; positive”. Also, the carcinogen call (Strain/Sex: WISTAR/FEMALE, Route: ORAL, Dose: 0, 0.014, 0.13, 1.3 MG/KG/BW/D IN DIET FOR DURATION OF STUDY (STUDY DURATION: 150 WK), Dose: 0, 0.014, 0.13, 1.3 MG/KG/BW/D IN DIET FOR DURATION OF STUDY (STUDY DURATION: 150 WK), Tumor Site: Type of Lesion: LIVER: NEOPLASTIC NODULES) is “active; positive”; the carcinogen call (Strain/Sex: WISTAR/MALE, Route: INHALATION, Dose: 0, 1, 50, 250, 500, 2500, 6000, 10000 PPM 4 HR/D, 5 D/WK FOR 52 WK (STUDY DURATION: 134-165 WK), Dose: 0, 1, 50, 250, 500, 2500, 6000, 10000 PPM 4 HR/D, 5 D/WK FOR 52 WK (STUDY DURATION: 134-165 WK), Tumor Site: Type of Lesion: LIVER: ANGIOSARCOMA, NERVOUS SYSTEM: NEUROBLASTOMA) is “active; positive”; the carcinogen call (Strain/Sex: WISTAR/MALE, Route: ORAL, Dose: 0, 0.014, 0.13, 1.3 MG/KG/BW/D IN DIET FOR DURATION OF STUDY (STUDY DURATION: 149 WK), Dose: 0, 0.014, 0.13, 1.3 MG/KG/BW/D IN DIET FOR DURATION OF STUDY (STUDY DURATION: 149 WK), Tumor Site: Type of Lesion: LIVER: HEPATOCELLULAR CARCINOMA) was “active; positive”.
